Reference: patent publication US12624034B2, “Non-covalent modifiers of AKT1 and uses thereof” (Terremoto Biosciences, Inc., priority 2023, dated 2026)
Where two headings read alike, the source gives them in different places.

Tests used:
AKT1 WT = biological target: T1, AKT1 WT (Homo sapiens, UniProt P31749); assay: Live cell AKT1 WT target engagement by NanoBRET competitive probe displacement in HEK293 cells; type: binding; settings: 2 h at 37° C., read-out: AKT1 WT IC50
T1 construct: expressed in transfected cells; host or cells: HEK293
T1 sequence (P31749 whole entry): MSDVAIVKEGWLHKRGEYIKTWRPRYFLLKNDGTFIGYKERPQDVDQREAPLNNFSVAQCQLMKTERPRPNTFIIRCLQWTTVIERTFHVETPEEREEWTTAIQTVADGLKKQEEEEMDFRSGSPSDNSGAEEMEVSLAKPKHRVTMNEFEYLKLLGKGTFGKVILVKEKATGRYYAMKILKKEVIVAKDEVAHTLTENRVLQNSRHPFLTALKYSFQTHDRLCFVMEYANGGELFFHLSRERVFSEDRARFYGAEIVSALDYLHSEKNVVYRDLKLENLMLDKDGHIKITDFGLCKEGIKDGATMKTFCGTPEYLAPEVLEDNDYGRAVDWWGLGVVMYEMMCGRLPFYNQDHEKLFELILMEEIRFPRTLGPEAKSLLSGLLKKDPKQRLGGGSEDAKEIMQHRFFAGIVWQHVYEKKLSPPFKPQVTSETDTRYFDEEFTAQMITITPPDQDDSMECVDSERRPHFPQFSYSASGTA

AKT2 = biological target: T2, AKT2 (Homo sapiens, UniProt P31751); assay: Live cell AKT2 target engagement by NanoBRET competitive probe displacement in HEK293 cells; type: binding; settings: 2 h at 37° C., read-out: AKT2 IC50
T2 construct: expressed in transfected cells; host or cells: HEK293
T2 sequence (P31751 whole entry): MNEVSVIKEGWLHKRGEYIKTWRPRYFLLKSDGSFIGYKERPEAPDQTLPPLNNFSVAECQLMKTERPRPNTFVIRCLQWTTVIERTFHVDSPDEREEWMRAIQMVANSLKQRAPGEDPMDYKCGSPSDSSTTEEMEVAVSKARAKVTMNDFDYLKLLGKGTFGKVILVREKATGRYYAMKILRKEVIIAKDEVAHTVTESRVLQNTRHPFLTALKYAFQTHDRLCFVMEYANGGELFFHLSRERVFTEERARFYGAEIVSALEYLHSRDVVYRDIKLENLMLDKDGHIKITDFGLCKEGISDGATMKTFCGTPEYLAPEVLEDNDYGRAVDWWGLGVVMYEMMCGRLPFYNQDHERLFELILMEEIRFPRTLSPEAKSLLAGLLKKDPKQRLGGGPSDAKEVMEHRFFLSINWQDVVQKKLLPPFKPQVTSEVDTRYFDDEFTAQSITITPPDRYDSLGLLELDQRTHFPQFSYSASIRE

[1] = NanoBRET live cell target engagement, HEK293 cells
[2] = NanoBRET competitive probe displacement, live HEK293 cells

Compound | IC50 (AKT1 WT; [1]) | IC50 (AKT2; [1]) | IC50 (AKT1 WT; [2]) | IC50 (AKT2; [2])
Cc1cnc2ccc(C(=O)N[C@H]3CCc4cc(-n5c(-c6cccnc6N)nc6ccc(-n7cccn7)nc65)ccc43)cn12 [Compound 71] | 4.63 nM | 69.7 nM |  | 
Nc1ncccc1-c1nc2ccc(-n3cccn3)nc2n1-c1ccc2c(c1)CC[C@@H]2NC1CC2(CCCN(c3ccccn3)C2)C1 (some centres unmarked) [Compound 468] |  |  | 74.7 nM | 1960 nM
Nc1ncccc1-c1nc2ccc(-n3cccn3)nc2n1-c1ccc2c(c1)CC[C@@H]2NC1CCN(C(=O)C(F)F)CC1 [Compound 475] |  |  | 130 nM | 2780 nM
Nc1ncccc1-c1nc2ccc(-n3nccn3)nc2n1-c1ccc2c(c1)CC[C@@H]2NC(=O)c1cc(F)c2[nH]ncc2c1 [Compound 383] | 12.8 nM | 214 nM |  | 
Nc1ncccc1-c1nc2ccc(C#CC3CC3)nc2n1-c1ccc2c(c1)CC[C@@H]2NC1CN(C(=O)C2CC2)C1 [Compound 506] |  |  | 96.9 nM | 8940 nM
N[C@H]1CCc2cc(-n3c(-c4ccccc4F)nc4ccc(-n5cccn5)nc43)ccc21 [Compound 527] |  |  | 19.5 nM | 1150 nM
Cn1cc(Cc2nncn2[C@H]2CCc3cc(-n4c(-c5cccnc5N)nc5ccc(-n6cccn6)nc54)ccc32)cn1 [Compound 228] | 586 nM | 2030 nM |  | 
Cc1ccc(C(=O)N[C@H]2CCc3cc(-n4c(-c5cccnc5N)nc5ccc(-c6ncco6)nc54)ccc32)cn1 [Compound 223] | 38.7 nM | 586 nM |  | 
Nc1ncccc1-c1nc2ccc(-n3cccn3)nc2n1-c1ccc2c(c1)CC[C@@H]2NC1CCN(C(=O)C2CC2(F)F)CC1 (some centres unmarked) [Compound 433] |  |  | 190 nM | 3530 nM
Cc1nccnc1C(=O)N[C@H]1CCc2cc(-n3c(-c4cccnc4N)nc4ccc(-c5ncco5)nc43)ccc21 [Compound 270] | 535 nM | > 10000 nM |  | 
N[C@@H]1c2ccc(-n3c(-c4ccccc4F)nc4ccc(-n5ccc(N6CCOCC6)n5)nc43)cc2CC1F (some centres unmarked) [Compound 571] |  |  | 2.22 nM | 176 nM
Cn1ncc(-c2ccc3nc(-c4cccnc4N)n(-c4ccc5c(c4)CC[C@@H]5n4ccnn4)c3n2)n1 [Compound 247] | 60.4 nM | 1570 nM |  | 
COCc1cc(C(=O)N[C@H]2CCc3cc(-n4c(-c5cccnc5N)nc5ccc(-n6cccn6)nc54)ccc32)ccc1O [Compound 410, (S)—N-(5-(2-(2-aminopyridin-3-yl)-5-(1H-pyrazol-1-yl)-3H-imidazo[4,5-b]pyridin-3-yl)-2,3-dihydro-1H-inden-1-yl)-4-hydroxy-3-(methoxymethyl)benzamide] |  |  | 7.43 nM | 57.6 nM
Cc1ccc(C(=O)N[C@H]2CCc3cc(-n4c(-c5cccnc5N)nc5ccc(-n6ncnc6C)nc54)ccc32)cn1 [Compound 418, (S)—N-(5-(2-(2-aminopyridin-3-yl)-5-(5-methyl-1H-1,2,4-triazol-1-yl)-3H-imidazo[4,5-b]pyridin-3-yl)-2,3-dihydro-1H-inden-1-yl)-6-methylnicotinamide] |  |  | 76 nM | 2680 nM
Nc1ncccc1-c1nc2ccc(-n3ncc(C4CC4)n3)nc2n1-c1ccc2c(c1)CC[C@@H]2NC(=O)c1cnc(C(F)F)s1 [Compound 588] |  |  | 27 nM | 764 nM
Cn1c(C(=O)N[C@H]2CCc3cc(-n4c(-c5cccnc5N)nc5ccc(-n6nccn6)nc54)ccc32)cnc1C1CC1 [Compound 540] |  |  | 107 nM | 3180 nM
Cn1nc(C(=O)N[C@H]2CCc3cc(-n4c(-c5cccnc5N)nc5ccc(-n6cccn6)nc54)ccc32)c2cccnc21 [Compound 163] | 20.4 nM | 363 nM |  | 
Nc1ncccc1-c1nc2ccc(-n3ccc(OC4COC4)n3)nc2n1-c1ccc2c(c1)CC[C@@H]2NC1CCN(C(=O)C2CC2)CC1 [Compound 567] |  |  | 11.3 nM | 455 nM
Cc1cnc(C)c(C(=O)N[C@H]2CCc3cc(-n4c(-c5cccnc5N)nc5ccc(-n6cccn6)nc54)ccc32)n1 [Compound 183] | 330 nM | > 10000 nM |  | 
Nc1ncccc1-c1nc2ccc(-n3ccc(C4CC4)n3)nc2n1-c1ccc2c(c1)CC(F)[C@@H]2NC1CCN(C(=O)C2CC2)CC1 (some centres unmarked) [Compound 480] |  |  | 38.9 nM | 3140 nM
Nc1ncccc1-c1nc2ccc(-n3cccn3)nc2n1-c1ccc2c(c1)CC[C@@H]2NC(=O)c1ccnc2c1OC(F)(F)O2 [Compound 317] | 131 nM | 1730 nM |  | 
Cc1ccc(C(=O)N[C@H]2CCc3cc(-n4c(-c5cccnc5N)nc5ccc(-c6cnn(C)n6)nc54)ccc32)cn1 [Compound 268] | 7.96 nM | 100 nM |  | 
Cc1ccc(C(=O)N[C@H]2CCc3cc(-n4c(-c5cccnc5N)nc5cc(F)c(-n6nccn6)nc54)ccc32)cn1 [Compound 466] |  |  | 25.9 nM | 1570 nM

Compound | IC50 (AKT1 WT; [1]) | IC50 (AKT2; [1]) | IC50 (AKT1 WT; [2]) | IC50 (AKT2; [2])
Nc1ncccc1-c1nc2ccc(-n3cccn3)nc2n1-c1ccc2c(c1)CC[C@@H]2NC1CCC2(CC1)CN(c1ccccn1)C2 [Compound 450] |  |  | 198 nM | 4470 nM
Nc1ncccc1-c1nc2ccc(-n3cccn3)nc2n1-c1ccc2c(c1)CC(F)[C@@H]2NC1CCc2cnccc21 (some centres unmarked) [Compound 481] |  |  | 13.9 nM | 278 nM
Nc1ncccc1-c1nc2ccc(-n3cccn3)nc2n1-c1ccc2c(c1)CC[C@@H]2NC(=O)c1cccnc1C#Cc1ccccc1 [Compound 210] | 95.8 nM | 596 nM |  | 
CS(=O)(=O)Nc1ccn(-c2ccc3nc(-c4cccnc4N)n(-c4ccc5c(c4)CC[C@@H]5NC4CCN(C(=O)C5CC5)CC4)c3n2)n1 [Compound 582] |  |  | > 1000 nM | > 10000 nM
Cc1ccc(C(=O)N[C@H]2CCc3cc(-n4c(-c5cccnc5N)nc5ccc(-c6ncc(C)s6)nc54)ccc32)cn1 [Compound 314] | 10.5 nM | 70.4 nM |  | 
Cc1cncc(C(=O)N[C@H]2CCc3cc(-n4c(-c5cccnc5N)nc5ccc(-n6cccn6)nc54)ccc32)n1 [Compound 186] | 76.3 nM | 3270 nM |  | 
Cc1cc2ncn([C@H]3CCc4cc(-n5c(-c6cccnc6N)nc6ccc(-n7cccn7)nc65)ccc43)c(=O)c2cn1 [Compound 91, (S)-3-(5-(2-(2-aminopyridin-3-yl)-5-(1H-pyrazol-1-yl)-3H-imidazo[4,5-b]pyridin-3-yl)-2,3-dihydro-1H-inden-1-yl)-7-methylpyrido[4,3-d]pyrimidin-4(3H)-one] | 198 nM | 763 nM |  | 
Nc1ncccc1-c1nc2ccc(-n3cccn3)nc2n1-c1ccc2c(c1)CCC2n1cccn1 (centres unmarked) [Compound 325, 3-(3-(1-(1H-pyrazol-1-yl)-2,3-dihydro-1H-inden-5-yl)-5-(1H-pyrazol-1-yl)-3H-imidazo[4,5-b]pyridin-2-yl)pyridin-2-amine] | 120 nM | 4290 nM |  | 
Cc1ccc(CN(C)[C@H]2CCc3cc(-n4c(-c5cccnc5N)nc5ccc(-n6cccn6)nc54)ccc32)cn1 [Compound 168] | 41.1 nM | 1010 nM |  | 
Nc1ncccc1-c1nc2ccc(-n3nccn3)nc2n1-c1ccc2c(c1)CC[C@@H]2NC(=O)c1cnc(C2CC2)s1 [Compound 520] |  |  | 9.92 nM | 198 nM
COc1ccn(-c2ccc3nc(-c4cccnc4N)n(-c4ccc5c(c4)CC[C@@H]5NC4CCN(C(=O)C5CC5)CC4F)c3n2)n1 (single isomer, unassigned) [Compound 514] |  |  | 26.4 nM | 1130 nM
Nc1ncccc1-c1nc2ccc(-n3cccn3)nc2n1-c1ccc2c(c1)CC[C@@H]2NC1CCN(C(=O)C2COC2)CC1 [Compound 423] |  |  | 188 nM | 2620 nM
Nc1ncccc1-c1nc2ccc(-n3cccn3)nc2n1-c1ccc2c(c1)CC[C@@H]2NC(=O)c1cnc2c(c1)CCC2 [Compound 94] | 7.33 nM | 18.8 nM |  | 
Cc1ncc(C(=O)N[C@H]2CCc3cc(-n4c(-c5cccnc5N)nc5ccc(-n6cccn6)nc54)ccc32)c(C(F)F)n1 [Compound 151, (S)—N-(5-(2-(2-aminopyridin-3-yl)-5-(1H-pyrazol-1-yl)-3H-imidazo[4,5-b]pyridin-3-yl)-2,3-dihydro-1H-inden-1-yl)-4-(difluoromethyl)-2-methylpyrimidine-5-carboxamide] | 22.8 nM | 366 nM |  | 
Nc1ncccc1-c1nc2ccc(-n3cccn3)nc2n1-c1ccc2c(c1)CC[C@@H]2NC1Cc2cccnc2C1 (some centres unmarked) [Compound 530] |  |  | 21.2 nM | 422 nM
Cc1cnc(-c2ccc3nc(-c4cccnc4N)n(-c4ccc5c(c4)CC[C@@H]5n4ccnn4)c3n2)s1 [Compound 303] | 45.6 nM | 1720 nM |  | 
COC1CCN(c2ccn(-c3ccc4nc(-c5cccnc5N)n(-c5ccc6c(c5)CC[C@@H]6NC5CCN(C(=O)C6CC6)CC5)c4n3)n2)CC1 [Compound 564] |  |  | 2.28 nM | 84.4 nM
Nc1ncccc1-c1nc2ccc(-n3cccn3)nc2n1-c1ccc2c(c1)CC[C@@H]2NC1CCc2cnccc21 (some centres unmarked) [Compound 473] |  |  | 19 nM | 28 nM
Nc1ncccc1-c1nc2ccc(-n3cccn3)nc2n1-c1ccc2c(c1)CC[C@@H]2NC1CCc2cnccc2C1 (some centres unmarked) [Compound 464] |  |  | 19.2 nM | 167 nM
Nc1ncccc1-c1nc2ccc(-n3cccn3)nc2n1-c1ccc2c(c1)CC[C@@H]2NC1CCN(C(=O)[C@@H]2C[C@@H]2F)CC1 [Compound 477] |  |  | 170 nM | 4360 nM
Nc1ncccc1-c1nc2ccc(-n3cccn3)nc2n1-c1ccc2c(c1)CC[C@@H]2NC(=O)N1CCOCC1 [Compound 27, (S)—N-(5-(2-(2-aminopyridin-3-yl)-5-(1H-pyrazol-1-yl)-3H-imidazo[4,5-b]pyridin-3-yl)-2,3-dihydro-1H-inden-1-yl)morpholine-4-carboxamide] | > 1000 nM | > 10000 nM |  | 
Nc1ncccc1-c1nc2ccc(-n3cccn3)nc2n1-c1ccc2c(c1)CC[C@@H]2n1cc(-c2cccnc2)nn1 [Compound 199] | 10.6 nM | 83.1 nM |  | 
Nc1ncccc1-c1nc2ccc(-n3cccn3)nc2n1-c1ccc2c(c1)CC[C@@H]2NC(=O)c1ccnc2c1CCC2 [Compound 235] | 22.8 nM | 111 nM |  | 
